Patent US7470684B2, “Spiropiperidine derivatives as NK3 antagonists” (Hoffmann-La Roche Inc., priority 2007, dated 2008)

Molecular target: T1, human NK3 receptor (Homo sapiens, UniProt P29371)
T1 construct: expressed in transfected cells; host or cells: HEK293 cells, transiently transfected; membranes
T1 sequence (P29371 1-465): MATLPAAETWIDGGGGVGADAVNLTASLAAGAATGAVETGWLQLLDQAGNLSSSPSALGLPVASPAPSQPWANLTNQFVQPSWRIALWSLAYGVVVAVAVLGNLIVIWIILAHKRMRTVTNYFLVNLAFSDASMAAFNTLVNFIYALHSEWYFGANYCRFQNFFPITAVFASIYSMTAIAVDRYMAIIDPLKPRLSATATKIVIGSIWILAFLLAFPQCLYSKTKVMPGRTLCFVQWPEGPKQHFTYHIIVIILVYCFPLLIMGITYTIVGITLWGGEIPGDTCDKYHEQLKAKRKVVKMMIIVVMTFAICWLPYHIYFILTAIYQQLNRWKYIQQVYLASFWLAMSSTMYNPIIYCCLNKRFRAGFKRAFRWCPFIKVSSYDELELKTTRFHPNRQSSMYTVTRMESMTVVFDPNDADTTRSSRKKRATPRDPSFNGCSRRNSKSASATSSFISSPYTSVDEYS
Experiment: [3H]SR142801 competition binding assay
Settings: hNK3 Ki, [3H]SR142801 displacement, membranes of HEK293 cells transiently expressing recombinant human NK3 receptor
Summary of the method: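 Membranes from HEK293 cells transiently expressing human NK3 receptor incubated 75 min at RT with [3H]SR142801 at its KD and compound (0.0003-10 μM) in pH 7.4 Tris/MnCl2 buffer. Filtration and scintillation counting, nonspecific binding with 10 μM SB222200. IC50 from Hill fit, Ki by Cheng-Prusoff, duplicates.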

## CN(Cc1cccc(Cl)c1)C(=O)C(CCN1CCC2(CC1)OC(=O)N(C)c1ccc(F)cc12)c1ccc(Cl)c(Cl)c1 (stereo not shown) [Example 40, N-(3-chlorobenzyl)-2-(3,4-dichlorophenyl)-4-(6-fluoro-1-methyl-2-oxo-1,2-dihydro-1′H-spiro[3,1-benzoxazine-4,4′-piperidin]-1′-yl)-N-methylbutanamide]
  Ki: 1.1 nM
